Assay results reported in the supplement of paper PMC13380429.

How the values were obtained:
Details in all cases: 72 h
U2OS [1] = assay: cell viability relative to DMSO; higher = less toxic
Caco-2 [2] = assay: as above
Vero E6 [3] = assay: as above
HepG2 [4] = assay: as above
U2OS [5] = assay: drug sensitivity score (DSS) for viability; higher = more toxic; extreme values may be limits of the assay
Caco-2 [6] = assay: as above
Vero E6 [7] = assay: as above
HepG2 [8] = assay: as above
U2OS [9] = assay: relative viability EC50 (midpoint between 100% and the lowest measured viability); higher = less toxic
Caco-2 [10] = assay: as above
Vero E6 [11] = assay: as above
HepG2 [12] = assay: as above
Calu-3 [13] = assay: cell viability relative to DMSO; higher = less toxic
Calu-3 [14] = assay: drug sensitivity score (DSS) for viability; higher = more toxic; extreme values may be limits of the assay
Calu-3 [15] = assay: relative viability EC50 (midpoint between 100% and the lowest measured viability); higher = less toxic

Row | SMILES | cell viability (U2OS [1]; 1 nM) | cell viability (U2OS [1]; 10 nM) | cell viability (U2OS [1]; 100 nM) | cell viability (U2OS [1]; 1000 nM) | cell viability (U2OS [1]; 10000 nM) | cell viability (Caco-2 [2]; 1 nM) | cell viability (Caco-2 [2]; 10 nM) | cell viability (Caco-2 [2]; 100 nM) | cell viability (Caco-2 [2]; 1000 nM) | cell viability (Caco-2 [2]; 10000 nM) | cell viability (Vero E6 [3]; 1 nM) | cell viability (Vero E6 [3]; 10 nM) | cell viability (Vero E6 [3]; 100 nM) | cell viability (Vero E6 [3]; 1000 nM) | cell viability (Vero E6 [3]; 10000 nM) | cell viability (HepG2 [4]; 1 nM) | cell viability (HepG2 [4]; 10 nM) | cell viability (HepG2 [4]; 100 nM) | cell viability (HepG2 [4]; 1000 nM) | cell viability (HepG2 [4]; 10000 nM) | drug sensitivity score (U2OS [5]) | drug sensitivity score (Caco-2 [6]) | drug sensitivity score (Vero E6 [7]) | drug sensitivity score (HepG2 [8]) | relative viability EC50 (U2OS [9]) | relative viability EC50 (Caco-2 [10]) | relative viability EC50 (Vero E6 [11]) | relative viability EC50 (HepG2 [12]) | cell viability (Calu-3 [13]; 1 nM) | cell viability (Calu-3 [13]; 10 nM) | cell viability (Calu-3 [13]; 100 nM) | cell viability (Calu-3 [13]; 1000 nM) | cell viability (Calu-3 [13]; 10000 nM) | drug sensitivity score (Calu-3 [14]) | relative viability EC50 (Calu-3 [15])
1 | CC(C)C[C@H](CN)CC(=O)O [PREGABALIN] | 94.5% | 102% | 98.9% | 98.2% | 98.2% | 128% | 122% | 95% | 104% | 82.6% | 93.5% | 105% | 106% | 103% | 100% | 105% | 87.3% | 106% | 103% | 98.9% | 0 | 0.3 | 0 | 0 | > 10 µM | > 10 µM | > 10 µM | > 10 µM |  |  |  |  |  |  | 
2 | COC(F)(F)C(Cl)Cl [methoxyflurane] | 99.8% | 97.3% | 98.5% | 95.3% | 100% | 96.2% | 98.1% | 96.9% | 99.8% | 94.4% | 104% | 102% | 103% | 96.7% | 96.3% | 103% | 96.3% | 100% | 94% | 109% | 0 | 0 | 0 | 0 | > 10 µM | > 10 µM | > 10 µM | > 10 µM |  |  |  |  |  |  | 
3 | COc1ccnc2[nH]cc(C(=O)C(=O)N3CCN(C(=O)c4ccccc4)C[C@H]3C)c12 [BMS-806] | 93.3% | 104% | 95.1% | 105% | 100% | 99.3% | 99% | 96.1% | 108% | 107% | 107% | 102% | 102% | 105% | 99.9% |  |  |  |  |  | 0 | 0 | 0 |  | > 10 µM | > 10 µM | > 10 µM |  | 105% | 108% | 107% | 110% | 99.3% | 0 | > 10 µM
4 | O=c1[nH]c(=O)n([C@H]2C[C@H](O)[C@@H](CO)O2)cc1Br [broxuridine] | 100% | 98% | 100% | 96.4% | 97.5% | 96% | 85.3% | 91.6% | 94.4% | 106% | 110% | 107% | 99% | 97.8% | 79% | 97% | 97.1% | 98.1% | 95.3% | 66.7% | 0 | 0 | 1 | 2.3 | > 10 µM | > 10 µM | > 10 µM |  | 94.2% | 86.5% | 102% | 95.9% | 101% | 0 | > 10 µM
